This test is described as follows: The binding affinity on delta-opioid receptor using [3H]- DPDPE as radioligand.

The record followed here is BindingDB's records for doi:10.1021/jm00036a015 (University of Minnesota, 1994).

Take `N=C(N)NCCN1CC[C@]23c4c5ccc(O)c4O[C@H]2c2[nH]c4c(c2C[C@@]3(O)[C@H]1C5)C[C@@]1(O)[C@H]2Cc3ccc(O)c5c3C1(CCN2CC1CC1)[C@H]4O5` [17-(cyclopropylmethyl)-17'-(2-guanidinoethyl-6,6',7,7'-tetradehydro-4,5:4',5'-diepoxy-6,6'-imino-7,7'-bimorphinan-3,3',14,14'-tetrol]: the Ki stood at 0.037 µM. This counts as double-digit nanomolar. `NCCN1CC[C@]23c4c5ccc(O)c4O[C@H]2c2[nH]c4c(c2C[C@@]3(O)[C@H]1C5)C[C@@]1(O)[C@H]2Cc3ccc(O)c5c3[C@@]1(CCN2CC1CC1)[C@H]4O5` [17-(cyclopropylmethyl)-17'-aminoethyl-6,6',7,7'-tetradehydro-4,5:4',5'-diepoxy-6,6'-imino-7,7'-bimorphinan-3,3',14,14'-tetrol] returned an inhibition constant (Ki) of 0.137 µM. This Ki is about 3.7-fold higher than that of the compound before. For `CCCCN1CC[C@]23c4c5ccc(O)c4O[C@H]2c2[nH]c4c(c2C[C@@]3(O)[C@H]1C5)C[C@@]1(O)[C@H]2Cc3ccc(O)c5c3[C@@]1(CCN2CC1CC1)[C@H]4O5` [17-(cyclopropylmethyl)-17'-butyl-6,6',7,7'-tetradehydro-4,5:4',5'-diepoxy-6,6'-imino-7,7'-bimorphinan-3,3',14,14'-tetrol] the value was 0.015 µM.

As a reminder, the Ki is a measure of affinity in units of concentration, obtained from inhibition or displacement. The low end stands for higher affinity, the high end for lower affinity.
